{"source": "patent US20060041013A1", "about": "“Alanosine formulations and methods of use” (priority 2004, published 2006)", "key": {"[1]": {"experiment": "Cell viability MTT assay (Example 3)", "type": "cell-based", "conditions": "72 h; A-594, NSCLC, MTAP Negative; 3 days"}, "NCI-H226 [2]": {"system": "NCI-H226", "experiment": "Intracellular ATP levels (Cell-Titer Glow)", "type": "cell-based", "conditions": "Homo sapiens, 72 h; NCI-H226, Mesothelioma, MTAP Positive; 3 day treatment", "method": "(§1) MTAP status was determined using immunoblot analyses and correlated with the ability of an MTA analog to rescue ATP levels in cell lines treated with SDX-102. ATP levels were measured using Cell-Titer Glow™ (Promega) after a 3 day treatment with titrated concentrations of either SDX-102 or pemetrexed.\n(§2) ATP values measured using Cell-Titer Glow™ (Promega) after 3 days exposure to the MTA analog. Solid lines in FIG. 8 represent the effect of titrations of SDX-102 from 0.05 μM-20 μM (FIG. 8A) or pemetrexed from 0.01 μM-5 μM (FIG. 8B) on cellular ATP levels. The dotted lines represent the effect of a single concentration of SDX-102 (10 μM) or pemetrexed (2.5 μM) with a titration of an MTA analog from 0.1 μM-50 μM."}, "HS-766T": {"system": "HS-766T", "experiment": "Intracellular ATP levels (Cell-Titer Glow)", "type": "cell-based", "conditions": "Hs766T, 72 h; HS-766T, Pancreatic, MTAP Positive; 3 day treatment", "method": "as §1, §2"}, "A-427 [3]": {"system": "A-427", "experiment": "Intracellular ATP levels (Cell-Titer Glow)", "type": "cell-based", "conditions": "Homo sapiens, 72 h; A-427, NSCLC, MTAP Positive; 3 day treatment", "method": "as §1, §2"}, "[4]": {"experiment": "Temperature and pH effects on stability (5 days at 5° C. or 80° C.)", "type": "physicochemical", "conditions": "for osmolality: about 20 mg/mL", "method": "Stability studies were then performed at different pHs. […] The pH of the solution was then adjusted in increments of 0.5 using 1N NaOH. Stability measurements of two duplicate samples were taken at each increment, beginning at pH 6.5 up through pH 9.0, and one sample was taken at pH 12.2. One set of samples was stored at 5° C., the other at 80° C., for five days, after which they were analyzed for pH, physical appearance, osmolality, and impurities. […] Here, impurities were determined by reverse phase HPLC as described herein."}, "NCI-H2452 [5]": {"system": "NCI-H2452", "experiment": "Docetaxel, 5-FU, SDX-102 alone or combined, MTT/MTS cytotoxicity (Example 4)", "type": "cell-based", "conditions": "Homo sapiens; NCI-H2452, Mesothelioma, single agent, MTT 72 hours"}, "A-427 [6]": {"system": "A-427", "experiment": "Cell viability MTT assay (Example 3)", "type": "cell-based", "conditions": "Homo sapiens, 72 h; A-427, NSCLC, MTAP Positive; 3 days"}, "BxPC3": {"system": "BxPC3", "experiment": "Intracellular ATP levels (Cell-Titer Glow)", "type": "cell-based", "conditions": "Homo sapiens, BXPC-3, 72 h; BxPC3, Pancreatic, MTAP Negative; 3 day treatment", "method": "as §1"}, "A-594": {"system": "A-594", "experiment": "Intracellular ATP levels (Cell-Titer Glow)", "type": "cell-based", "conditions": "72 h; A-594, NSCLC, MTAP Negative; 3 day treatment", "method": "as §1"}, "NCI-H2452 [7]": {"system": "NCI-H2452", "experiment": "Intracellular ATP levels (Cell-Titer Glow)", "type": "cell-based", "conditions": "Homo sapiens, 72 h; NCI-H2452, Mesothelioma, MTAP Negative; 3 day treatment; read-out: ATP IC50", "method": "as §1"}, "A549 NSCLC xenografts": {"system": "A549 NSCLC xenografts", "experiment": "MTAP-negative A549 NSCLC xenografts in SCID mice", "type": "in vivo", "conditions": "60 days monitoring, doses as administered"}, "NCI-H2452 [8]": {"system": "NCI-H2452", "experiment": "Cell viability MTT assay (Example 3)", "type": "cell-based", "conditions": "Homo sapiens, 72 h; NCI-H2452, Mesothelioma, MTAP Negative; 3 days"}, "NCI-H226 [9]": {"system": "NCI-H226", "experiment": "Cell viability MTT assay (Example 3)", "type": "cell-based", "conditions": "Homo sapiens, 72 h; NCI-H226, Mesothelioma, MTAP Positive; 3 days"}, "physchem": {"experiment": "physchem", "type": "physicochemical", "method": "The solution was stirred on a stir plate at room temperature and the pH was adjusted by adding 20 microliter (μL) aliquots of 1N NaOH. After the addition of each aliquot, the resulting pH was measured potentiometrically and the results were recorded. The results of the titration appear in FIG. 1. The solution was also visually inspected during the course of the titration experiment to observe full dissolution of the alanosine."}, "mice": {"system": "mice", "conditions": "cited from earlier work"}, "NCI-H322M": {"system": "NCI-H322M", "experiment": "Docetaxel, 5-FU, SDX-102 alone or combined, MTT/MTS cytotoxicity (Example 4)", "type": "cell-based", "conditions": "Homo sapiens, NSCLC, single agent, MTT 72 hours"}, "[10]": {"conditions": "humans, intravenous, biphasic plasma clearance; times approximate; cited from earlier work"}}, "note": "Where two headings read alike, the source gives them in different places.", "data": [{"smiles": "NC(CN(O)N=O)C(=O)O", "note": "[L-alanosine, L(−)-2-amino-3-nitrosohydroxylaminopropionic acid]", "values": [{"measurement": "IC50", "setting": "[1]", "result": 400, "unit": "nM"}, {"measurement": "IC50", "setting": "NCI-H226 [2]", "result": 400, "unit": "nM"}, {"measurement": "IC50", "setting": "HS-766T", "result": 2000, "unit": "nM"}, {"measurement": "IC50", "setting": "A-427 [3]", "result": 1500, "unit": "nM"}, {"measurement": "impurities as a function of pH", "setting": "[4]; 80° C. five days, pH 6.5-12.2, HPLC", "result": "inverse relationship between the amount of impurities and pH"}, {"measurement": "osmolality", "setting": "[4]; pH 6.5, stored at 5° C. five days", "result": 225, "unit": "mOsm"}, {"measurement": "osmolality", "setting": "[4]; pH 6.5, stored at 80° C. five days", "result": 247, "unit": "mOsm"}, {"measurement": "osmolality", "setting": "[4]; pH 8.0, stored at 5° C. five days", "result": 272, "unit": "mOsm"}, {"measurement": "osmolality", "setting": "[4]; pH 8.0, stored at 80° C. five days", "result": 273, "unit": "mOsm"}, {"measurement": "IC50", "setting": "NCI-H2452 [5]", "result": "1000 ± 500", "unit": "nM"}, {"measurement": "IC50", "setting": "A-427 [6]", "result": 3300, "unit": "nM"}, {"measurement": "IC50", "setting": "BxPC3", "result": 600, "unit": "nM"}, {"measurement": "IC50", "setting": "A-594", "result": 300, "unit": "nM"}, {"measurement": "IC50", "setting": "NCI-H2452 [7]", "result": 400, "unit": "nM"}, {"measurement": "tumor growth inhibition", "setting": "A549 NSCLC xenografts", "result": "did not induce tumor growth inhibition"}, {"measurement": "IC50", "setting": "NCI-H2452 [8]", "result": 500, "unit": "nM"}, {"measurement": "IC50", "setting": "NCI-H226 [9]", "result": 1500, "unit": "nM"}, {"measurement": "solubility in water", "setting": "physchem", "result": "poor solubility"}, {"measurement": "pH that must be exceeded for full dissolution", "setting": "physchem; free base, approx. 20 mg/mL in water", "result": "exceeded 6.2"}, {"measurement": "pKa", "setting": "physchem; pKa (first)", "result": "~5.5"}, {"measurement": "pKa", "setting": "physchem; pKa (second)", "result": "~8.5"}, {"measurement": "LD50", "setting": "mice; administered intraperitoneally", "result": 600, "unit": "mg/kg"}, {"measurement": "LD50", "setting": "mice; given intravenously", "result": 300, "unit": "mg/kg"}, {"measurement": "IC50", "setting": "NCI-H322M", "result": "6000 ± 1000", "unit": "nM"}, {"measurement": "t1/2α", "setting": "[10]", "result": "~14", "unit": "min"}, {"measurement": "t1/2β", "setting": "[10]", "result": "~99", "unit": "min"}]}]}
